# From US6605639B1, “Ligands of nuclear receptor” (Nuclear Receptor Research, Ltd., priority 1998, dated 2003)
# Where “and” joins values, the source holds several entries; their conditions need not be identical. Identical values can stand only once.
# Columns and labels:
# DOCA hypertensive rats = experiment: Aneurysm formation in the mesenteric artery of DOCA hypertensive rats; assay type: in vivo, rat; set-up: Lesion index, individual rats / Lesion index, Avg: scale not given here; conditions: for Appearance frequency (node count/arteriole count×100), individual rats / Lesion index, individual rats / Appearance frequency, Avg / Lesion index, Avg / Node count, Avg / Node count, individual rats: 7 weeks; for Appearance frequency, Avg / Lesion index, Avg / Node count, Avg: 6 rats; for Node count, individual rats: counted thrice, average
# From the text: The compounds of the present invention show an effect of inhibiting periarteritis nodosa in a malignant hypertension model rat in which periarteritis nodosa arises in the mesenteric artery and progresses into aneurysm. Among aneurysms, those formed in the mesenteric artery can be treated quantitatively. Thus, the mesenteric artery was taken out and fixed with formalin. Then it was fat-stained and arterioles and aneurysms were counted thrice and the average aneurysm count per arteriole was calculated. To rats with renal hypofunction due to the excision of one kidney, […] saline, having a somewhat higher osmotic pressure than plasma, was given as drinking water and 10 mg/kg of deoxycorticosterone acetate (DOCA) (a mineral corticoid) was subcutaneously administered at intervals of 1 week. Twenty-four male Wistar rats were divided into 4 groups at random. After taking out the left kidney, each animal was allowed to stand and the operative wound was fused. […] The experiment was carried out for 7 weeks. Since the initiation of the experiment, the feed intake, water intake, urine, body weight and blood pressure of each group were measured once every three days.
# The average blood pressure exceeded 180 mmHg in the 3rd week and attained 200 mmHg in the 4th week. […] In the 7th week, each animal was dissected and the mesenteric artery was taken out. After treating with formalin, the artery was fat-stained and aneurysms were counted. […] In the high-dose Compound-6 group, the average aneurysm count per arteriole was lowered to 0.27±0.05.
# Arterioles and nodes in the mesenteric artery were each counted thrice and the average was calculated.
# a) Appearance frequency=node count/arteriole count×100 (%).
# male Wistar rats = experiment: Sterol balance and bile acid excretion in rats; assay type: in vivo, rat; conditions: 10 mg/kg oral once a day
# Procedure: Feed-origin cholesterol and neutral sterol and acidic sterol in the feces of rats, to which the compounds of the present invention had been administered, were determined to monitor sterol balance and changes in the bile acid composition in feces. […] Further, the bile was sampled with the passage of time from rats having been subjected to cholangiostomy and bile acids thereof were determined. […] Male Wistar rats weighting about 250 g were divided into groups each having 6 to 8 animals. […] […] The feces were collected on the days 6 and 10. Then sterols were extracted therefrom in a conventional manner, acidic sterols and neutral sterols were determined. On the other hand, cholesterol in the feed was also determined so as to calculate the amount of feed-origin sterol.
compound,measurement,setting,value
"COc1c(Cl)c(C)c(C=O)c(O)c1C/C=C(C)/C=C/[C@@]1(C)[C@H](C)CCC(=O)[C@@H]1C [Compound-6, 4-O-methylASC]","Appearance frequency (node count/arteriole count×100), individual rats",DOCA hypertensive rats; 10 mg/kg/day,25.89% and 20.56% and 27.27% and 274.91% and 33.35% and 15.00%
same,"Lesion index, individual rats",DOCA hypertensive rats; 10 mg/kg/day,1 (5×) and 4
same,"Appearance frequency, Avg",DOCA hypertensive rats; 10 mg/kg/day,66.16 ± 41.83%
same,"Lesion index, Avg",DOCA hypertensive rats; 10 mg/kg/day,1.50 ± 0.50
same,"Node count, Avg",DOCA hypertensive rats; 10 mg/kg/day,9.27
same,"Node count, individual rats",DOCA hypertensive rats; 10 mg/kg/day,2.33 (2×) and 3.00 and 40.33 and 5.67 and 2.00
same,"Appearance frequency (node count/arteriole count×100), individual rats",DOCA hypertensive rats; 40 mg/kg/day,7.89% and 3.19% and 16.67% and 36.59% and 25.62% and 28.87%
same,"Lesion index, individual rats",DOCA hypertensive rats; 40 mg/kg/day,1
same,"Appearance frequency, Avg",DOCA hypertensive rats; 40 mg/kg/day,26.57 ± 5.24 %
same,"Lesion index, Avg",DOCA hypertensive rats; 40 mg/kg/day,1.00 ± 0.00
same,"Node count, Avg",DOCA hypertensive rats; 40 mg/kg/day,2.67
same,"Node count, individual rats",DOCA hypertensive rats; 40 mg/kg/day,1.00 and 0.33 and 2.00 and 5.00 and 3.33 and 4.33
same,average aneurysm count per arteriole,"DOCA hypertensive rats; high-dose group (40 mg/kg/day), 7th week",0.27±0.05
same,aneurysms per arteriole on average,"DOCA hypertensive rats; low-dose group (10 mg/kg/day), 7th week",0.66±0.41
same,Serum total cholesterol,male Wistar rats; Standard feed,65.0 ± 2.98 mg/dL
same,Sterol Excretion,male Wistar rats; Standard feed,10.81 mg/200 g wt.
same,Sterol balance,male Wistar rats; Standard feed,-2.26 mg
same,Serum total cholesterol,male Wistar rats; feed containing cholesterol,77.0 ± 2.19 mg/dL
same,Sterol Excretion,male Wistar rats; feed containing cholesterol,275.52 mg/200 g wt.
same,Sterol balance,male Wistar rats; feed containing cholesterol,+25.93 mg
